Values after ≈ are worked out from the molar mass of the structure shown.
Legend:
in vitro [1] = conditions: hepatocytes
in vitro [2] = conditions: human, hepatocytes
physchem [3] = conditions: octan-1-ol/water, pH 7.4, LogD7.4
in vitro [4] = conditions: human
physchem [5] = conditions: pH 7.4 buffer
in vitro [6] = conditions: human, plasma
in vitro [7] = conditions: SD, HW or BN, rat, plasma

SMILES	hepatocyte CLint (in vitro [1]) [µL/min/1e6 cells]	hepatocyte CLint (in vitro [2]) [µL/min/1e6 cells]	logD (physchem [3])	microsomal CLint (in vitro [4]; liver microsomes) [µL/min/mg]	solubility thermodynamic (physchem [5]) [µM]	fraction unbound at 5 h (in vitro [6]; PPB)	fraction unbound at 5 h (in vitro [7])	microsomal CLint (in vitro [4]; microsomes) [µL/min/mg]	fraction unbound at 5 h (in vitro [6])
O=C(O)C[C@H]1CC[C@H](c2ccc(-c3ccc(Nc4ccc(C(F)(F)F)nc4)cn3)cc2)CC1	11.5	< 3	3.8	< 3	1.1 (≈ 0.501 µg/mL)				
O=C(N[C@H](Cc1ccc(Cl)cc1)C(=O)N1CCC(Cn2cncn2)(C2CCCCC2)CC1)[C@H]1Cc2ccccc2CN1	40.7	27.5				0.007	0.0052		
O=c1c2sccc2n(CC2COc3ccccc3O2)c(=O)n1O (stereo not drawn)	14.8	135	1.44	< 3	120 (≈ 39.9 µg/mL)				
CC(CO)(CO)Nc1nc(SCc2cccc(F)c2F)nc2nc(N)sc12	7	4.92	2.87			0.129			
O=C(Cc1ccc(Cl)c(C(F)(F)F)c1)Nc1cccc2c(=O)n(CCO)ccc12	11	32		< 3		0.0097	0.072		
O=C(NCC1(O)CCCCCC1)c1cc(-n2ncc(=O)[nH]c2=O)ccc1Cl	< 3	< 3	0.26	< 3		0.24	0.129		
CN(C)CCCOc1nn(Cc2ccccc2)c2ccccc12 [BENZYDAMINE]	> 150	7.76	2.4					17.8	
CC(C)NCC(O)COc1ccc(CCOCC2CC2)cc1 (stereo not drawn) [BETAXOLOL]	12	< 3				0.725	0.409	< 3	
CCC(=O)N[C@H]1CC[C@@H](C(=O)N(C)c2ccc(-c3nc4ccccc4o3)cc2)C1 [BI 99179]	7.59	4.57	3.4		45.7 (≈ 17.9 µg/mL)			11	
CCc1cccc2cc(C(O)CNC(C)(C)C)oc12 (stereo not drawn) [BUFURALOL]	> 150	8.71				0.0801			
C[C@]12CCC(=O)C=C1C=C[C@@H]1[C@@H]2CC[C@@]2(C)[C@H]1CC[C@@]21CCC(=O)O1 [CANRENONE]	45.7	6.61	3.2	14.4		0.0594	0.0383		
Cc1ccc(C)c(OCCCC(C)(C)C(=O)O)c1 [GEMFIBROZIL]	> 150	66.1	0.72			0.0023	0.0153	29.5	
CC1Cc2ccccc2N1NC(=O)c1ccc(Cl)c(S(N)(=O)=O)c1 (stereo not drawn) [INDAPAMIDE]	13.2	4.9	1.83		151 (≈ 55.4 µg/mL)	0.204			
CCN1CCN(c2ccc(Nc3cc(N(C)C(=O)Nc4c(Cl)c(OC)cc(OC)c4Cl)ncn3)cc2)CC1 [INFIGRATINIB]	87.1	28.8	3.7		0.5 (≈ 0.28 µg/mL)				
CS(=O)(=O)N1CCc2c(-c3cnc(N)nc3)nc(N3CCOCC3)nc21 [IZORLISIB]	5.37	< 3	1.2		1.7 (≈ 0.642 µg/mL)				
O=C(c1ccc(F)cc1)C1CCN(CCn2c(=O)[nH]c3ccccc3c2=O)CC1 [KETANSERIN]	24.6	30.2				0.0968	0.0064		
Cc1oncc1C(=O)Nc1ccc(C(F)(F)F)cc1 [LEFLUNOMIDE]	24	< 3	3.9		67.6 (≈ 18.3 µg/mL)				
O=C1Nc2ccc(Cl)cc2C(c2ccccc2Cl)=NC1O (stereo not drawn) [LORAZEPAM]	17.4	4.57		7.94	178 (≈ 57.1 µg/mL)				0.072
C[C@H]1C[C@@H]2[C@H]([C@@H](O)C[C@@]3(C)[C@H]2CC[C@]3(O)C(=O)CO)[C@@]2(C)C=CC(=O)C=C12 [METHYLPREDNISOLONE]	> 150	9.12	2.12			0.201			
CCS(=O)(=O)CCCC12CCC(c3nnc(-c4ccccc4C(F)(F)F)n3C)(CC1)CC2 [MK-0736]	< 3	< 3		< 3					
CCCCNC(=O)NS(=O)(=O)c1ccc(C)cc1 [TOLBUTAMIDE]	6.61	6.31						6.31	
Cc1c(C)c2c(c(C)c1O)CCC(C)(COc1ccc(CC3SC(=O)NC3=O)cc1)O2 (stereo not drawn) [TROGLITAZONE]	> 150	28.2		49		0.0009			
